Assay results as given in ChEMBL document CHEMBL5725827, “2-pyridyloxy-3-ester-4-nitrile orexin receptor antagonists” (2017).

biological target: Orexin/Hypocretin receptor type 1 (Rattus norvegicus, UniProt P56718); test: Radioligand Binding Assay: Described in Bergman et. al. Bioorg. Med. Chem. Lett. 2008, 18, 1425-1430.; parameters: species or system Homo sapiens
Sequence (P56718 whole entry, looked up): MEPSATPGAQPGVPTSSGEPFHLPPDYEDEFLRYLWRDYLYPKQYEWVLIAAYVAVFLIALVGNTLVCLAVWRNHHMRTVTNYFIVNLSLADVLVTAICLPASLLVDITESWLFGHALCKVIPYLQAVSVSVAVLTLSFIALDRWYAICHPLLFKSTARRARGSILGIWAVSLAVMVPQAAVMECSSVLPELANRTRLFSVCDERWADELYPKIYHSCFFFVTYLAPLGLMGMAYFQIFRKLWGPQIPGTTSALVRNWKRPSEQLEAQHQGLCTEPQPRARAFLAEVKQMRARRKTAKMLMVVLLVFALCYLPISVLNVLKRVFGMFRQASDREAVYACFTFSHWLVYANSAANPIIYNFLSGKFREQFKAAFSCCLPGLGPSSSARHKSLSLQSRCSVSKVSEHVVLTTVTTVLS

| Ki [nM] | SMILES |
| --- | --- |
| 117 | COC(=O)c1c(C#N)ccnc1O[C@@H]1CC[C@@H](C)N(C(=O)c2cc(F)ccc2-c2noc(C)n2)C1 |
| 144 | COC(=O)c1c(C#N)ccnc1O[C@@H]1CC[C@@H](C)N(C(=O)c2cc(F)ccc2-n2nccn2)C1 |
| 46 | COC(=O)c1c(C#N)ccnc1O[C@@H]1CC[C@@H](C)N(C(=O)c2cc(F)ccc2-c2ncccn2)C1 |
| 73.8 | COC(=O)c1c(C#N)ccnc1O[C@@H]1CC[C@@H](C)N(C(=O)c2ccccc2-c2nc(C)no2)C1 |
| 405 | COC(=O)c1c(C#N)ccnc1O[C@@H]1CC[C@@H](C)N(C(=O)c2ccc(F)cc2-c2nc(C)no2)C1 |
| 153 | COC(=O)c1c(C#N)ccnc1O[C@@H]1CC[C@@H](C)N(C(=O)c2cc(F)ccc2-c2nc(C)no2)C1 |
| 175 | COC(=O)c1c(C#N)ccnc1O[C@@H]1CC[C@@H](C)N(C(=O)c2ccc(F)cc2-n2nccn2)C1 |
| 128 | COC(=O)c1c(C#N)ccnc1O[C@@H]1CC[C@@H](C)N(C(=O)c2cccc(F)c2-c2noc(C)n2)C1 |
| 56 | COC(=O)c1c(C#N)ccnc1O[C@@H]1CC[C@@H](C)N(C(=O)c2ccccc2-n2nccn2)C1 |
| 25.8 | COC(=O)c1c(C#N)ccnc1O[C@@H]1CC[C@@H](C)N(C(=O)c2cc(C)ccc2-n2nccn2)C1 |
| 75.6 | COC(=O)c1c(C#N)ccnc1O[C@@H]1CC[C@@H](C)N(C(=O)c2ccc(F)cc2-c2ncccn2)C1 |
| 210 | COC(=O)c1c(C#N)ccnc1O[C@@H]1CC[C@@H](C)N(C(=O)c2cccc(F)c2-n2nccn2)C1 |
| 37.1 | COC(=O)c1c(C#N)ccnc1O[C@@H]1CC[C@@H](C)N(C(=O)c2c(C)cccc2-n2nccn2)C1 |
| 86.6 | COC(=O)c1c(C#N)ccnc1O[C@@H]1CC[C@@H](C)N(C(=O)c2ccccc2-c2noc(C)n2)C1 |
| 63 | COC(=O)c1c(C#N)ccnc1O[C@@H]1CC[C@@H](C)N(C(=O)c2c(F)cccc2-n2nccn2)C1 |
